Data as given in patent publication US5837729A, “Methods for treating and preventing HIV infection using acetaminophen and derivatives thereof” (priority 1996, dated 1998).
In brackets after ≈: the same amount, converted by molar mass. Several values for one entry are separate records, joined by “and”; a condition that tells them apart may be missing. Equal values may be shown once. Entries after “also recorded” stand apart in the source; their conditions may differ. Read-outs that look alike come from different tables or passages of the source.

Key:
[1] = tested on: acrosin; details: correlated with contraceptive effect; cited from earlier work
[2] = tested on: MT-4 T lymphocytes; assay type: cell-based
Description: The toxicity of compounds was tested as follows.

[3] = tested on: HIV; assay: HIV infection of MT-4 T lymphocytes, p24 ELISA of culture supernatant on day 2; assay type: cell-based; details: for IC100 / IC50: Human immunodeficiency virus 1, T-lymphocyte; for IC100: 48 h; for anti-HIV activity (in words) / IC50: MT-4, p24
Description: (§1) The % values on the right axis were positioned in a fashion that allows estimation of inhibitory effect of the test drug as a function of AGB concentration plotted on the horizontal axis.
(§2) The % values on the right axis were positioned in a fashion that allows estimation of the inhibitory effect of test drug as a function of EGB concentration plotted on the horizontal axis.
Indicator MT-4 T lymphocytes (10^5 cells/ml) were plated in triplicates in 96-well culture plates in the presence of serial 10-fold molar dilutions of test compound. Each culture well contained 180 μl of RPMI 1640 culture medium with 10% FBS, L-glutamine, penicillin and streptomycin. Immediately thereafter MT-4 lymphocytes were exposed to 20 μl of viral inoculum corresponding to 100 infectious units per lymphocyte as determined by limiting dilution assay. Two days later--the minimal time period corresponding to full replication cycle of HIV--the culture supernatants were collected and dose-response to drugs was quantitated by measuring the levels of cell-free p24 antigen. The amount of released virus was calculated by comparing the optical density of experimental values from treated wells to commercial p24 standards (Coulter, Hialeah, Fla.).
(§3) The serial ten-fold dilutions of AGB, virus, and cells were left without washing in the culture until tested for HIV production 2 days later. Topical contraceptive agents nonoxynol-9 and gramicidin were used as controls.
(§4) The serial ten-fold dilutions of EGB, virus, and cells were left without washing in the culture until tested for HIV production 2 days later. Topical contraceptive agents nonoxynol-9 and gramicidin were used as controls.

[4] = tested on: MT-4 T lymphocytes; assay: in vitro
Text: (§5) The % values on the right axis were positioned in a fashion that allows estimation of inhibitory effect of the test drug as a function of acetaminophen concentration plotted on the horizontal axis.
as §1, §2
(§6) The toxicity of compounds was tested as follows. MT-4 lymphocytes were grown in the presence or absence of log10 dilutions of test compounds for two days. The cells were then exposed for 4 hours to the preparation of XTT tetrasolium salt (Sigma, St Louis, Mo.) containing phenazine methosulfate (Aldrich, Milwaukee, Wis.). The viability of drug-exposed cells was determined based on activity of mitochondrial […] of MT-4 converting XTT into color-dense formazan. Optical density was then determined in a plate reader at […] with reference filter at […] and compared to absorbance values of the control cells cultured without drugs. XTT test was also confirmed by trypan blue exclusion test based on the principle that nuclei of dead cells are stained blue.
as §3, §4

[5] = cited from earlier work; for potency as experimental vaginal contraceptive, fold more potent than nonoxynol-9: versus nonoxynol-9
[6] = tested on: HIV; details: cited from earlier work
[7] = tested on: human spermatozoa; details: in vitro with human spermatozoa and in animal studies; cited from earlier work
[8] = cited from earlier work
[9] = in vitro; details: human, mt-4 cells
Text: as §5, §1, §2, §6, §3, §4

[10] = Table 1, MT-4, 2 days, read-out: IC100 (approximate order of anti-HIV concentration)
[11] = background, earlier work of inventor
[12] = p24 ELISA, MT-4 supernatant, day 2, read-out: Complete inhibition of HIV replication, concentration

CCOC(=O)c1ccc(OC(=O)c2ccc(NC(=N)N)cc2)cc1 [EGB, 4'-carboethoxyphenyl 4-guanidinobenzoate]
acrosin activity (in words) [1]: inhibitory action on acrosin activity
viability of MT-4 lymphocytes by trypan blue exclusion (in words) [2]: death of MT-4 lymphocytes
SI, selectivity index, ratio between CC100 and IC100 values [3]: 1
IC100 [3, 10]: 100 µg/mL
anti-HIV activity (in words) [3]: antiviral activity was not specific and due to the death of host lymphocytes; also recorded: no effect on HIV infection at doses that were not toxic; also recorded: has not shown specific anti-HIV activity
CC100 (cytotoxicity) ([4]; human, 2880 min): 100 µg
toxicity and irritation versus nonoxynol-9 (in words) [5]: far less toxic and irritating
potency as experimental vaginal contraceptive, fold more potent than nonoxynol-9 [5]: up to 100 fold

C[C@@H]1C[C@H]2[C@@H]3CCC4=CC(=O)C=C[C@]4(C)[C@@]3(F)[C@@H](O)C[C@]2(C)[C@@]1(O)C(=O)CO [dexamethasone]
anti-HIV effect / inhibition of HIV replication (in words) [6, 11]: anti-HIV effect

CN/C(=N/CCSCc1nc[nH]c1C)NC#N [cimetidine]
anti-HIV effect / inhibition of HIV replication (in words) [6]: able to inhibit HIV replication without producing significant cytotoxicity

gramicidin
anti-HIV effect / inhibition of HIV replication (in words) [6, 11]: able to inhibit HIV replication without producing significant cytotoxicity
IC100 (approximate order of anti-HIV concentration) ([3]; Table 1, MT-4, 2 days): 10 ng
CC100 (cytotoxicity) ([4]; Table 1, MT-4, 2 days): 10 µg
toxicity relative to AGB (in words) ([4]; dose compared with AGB): toxic at doses that are a thousand-fold lower than AGB

CC(=O)[C@H]1CC[C@H]2[C@@H]3CCC4=CC(=O)CC[C@]4(C)[C@H]3CC[C@]12C [progesterone]
anti-HIV effect / inhibition of HIV replication (in words) [6, 11]: anti-HIV effect

CC(=O)Nc1ccc(OC(=O)c2ccc(NC(=N)N)cc2)cc1 [AGB, 4'-acetamidophenyl 4-guanidinobenzoate]
acrosin activity (in words) [1]: inhibitory action on acrosin activity
antiviral potency relative to nonoxynol-9, times less potent [3]: 10 times
IC100 [3, 10]: 100 µg/mL
IC100 [3, 12]: 100 µg/mL
IC50 ([3]; read-out: anti-HIV activity in vitro, IC50): 14 mg/L (≈ 44.8 µM)
SI, selectivity index, ratio between CC100 and IC100 values ([3]; Table 1, CC100/IC100): 100
optimal concentration required to inhibit both acrosome reaction and sperm motility [7]: 100 µg/mL
CC100 (cytotoxicity) ([4]; human, 2880 min): 10000 µg
toxicity and irritation versus nonoxynol-9 (in words) [5]: far less toxic and irritating
potency as experimental vaginal contraceptive, fold more potent than nonoxynol-9 [5]: up to 100 fold

c1ccc([C@H]2CN3CCSC3=N2)cc1 [levamisole]
anti-HIV effect / inhibition of HIV replication (in words) [6]: anti-HIV effect

CC(=O)Nc1ccc(O)cc1 [Acetaminophen, acetaminophen]
anti-inflammatory activity (in words) ([8]; human, in vivo): no anti-inflammatory activity
toxicity / hepatotoxicity (in words) ([8]; overdose or consumption with alcohol): can cause hepatotoxicity
IC100 [3, 10]: 150 µg/mL
IC100 [3, 12]: 150 µg/mL and 1000 µM
IC50 ([3]; read-out: inhibitory concentration (IC50), 50% inhibition of de novo HIV infection): 21 mg/L (≈ 139 µM)
anti-HIV activity (in words) [3]: antivirally active
selectivity ratio [9]: ≤ 75
toxicity at tested concentrations (in words) [4]: has not shown any toxicity at all tested concentrations
toxic dose-effect by XTT formazan OD (in words) ([4]; up to highest tested dose containing 0.5% of ethanol): no observable toxic dose-effect

CC(C)C[C@H](NC(=O)[C@@H](O)[C@H](N)Cc1ccccc1)C(=O)O [bestatin]
anti-HIV effect / inhibition of HIV replication (in words) [6, 11]: anti-HIV effect

COc1ccc2c(c1)c(CC(=O)O)c(C)n2C(=O)c1ccc(Cl)cc1 [indomethacin]
relative anti-HIV potency (in words) ([6]; indomethacin versus aspirin): more potent than aspirin

nonoxynol-9
local toxicity (in words) ([8]; spermicidal agent, effective concentration): local toxicity of this agent is incompatible with its antiviral activity when used at an effective concentration
IC100 (approximate order of anti-HIV concentration) ([3]; Table 1, MT-4, 2 days): 10000 ng
CC100 (cytotoxicity) ([4]; Table 1, MT-4, 2 days): 10 µg

CC(=O)CC(c1ccccc1)c1c(O)c2ccccc2oc1=O (stereo not drawn) [warfarin]
anti-HIV effect / inhibition of HIV replication (in words) [6, 11]: anti-HIV effect

estrogen
anti-HIV effect / inhibition of HIV replication (in words) [6, 11]: anti-HIV effect
